Measured values taken from US20190352288A1, “MATRIX METALLOPROTEINASE (MMP) INHIBITORS AND METHODS OF USE THEREOF” (Foresee Pharmaceuticals Co., Ltd., priority 2018, published 2019).
Each block holds one molecule with its values, some of them ahead of it.

Columns and labels:
Assay type in all cases: biochemical
[1] = target: T1, recombinant human MMP-12 catalytic domain (Homo sapiens, UniProt P39900); experiment: MMP-12 inhibitory assay (fluorogenic substrate cleavage); conditions: readout at 30 minutes, 37° C., Table 1
T1 construct: recombinant human MMP-12 catalytic domain; purchased Enzo BML-SE138
T1 sequence (P39900 106-268 limits assumed): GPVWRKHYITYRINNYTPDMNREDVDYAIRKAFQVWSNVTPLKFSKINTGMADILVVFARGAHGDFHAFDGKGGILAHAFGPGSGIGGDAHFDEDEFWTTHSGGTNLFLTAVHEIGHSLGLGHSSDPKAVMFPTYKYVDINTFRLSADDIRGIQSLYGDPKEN
Procedure: (§1) The inhibitory effect of compounds on the rate of cleaving fluorogenic MMP substrate (Enzo, BML-P128) by recombinant human MMP-12 catalytic domain (Enzo, BML-SE138) was carried out by methods known in the art. Briefly, to each well of a 96-well black opaque plate, all the reagents were sequentially added by pipetting, and the final reaction contained 4 nM of recombinant human MMP-12 catalytic domain, 4 μM of fluorogenic MMP substrate, and various concentrations (0.15 nM to 10,000 nM) of tested compound dilutions in HEPES buffer (pH 7.5) containing 10 mM of CaCl2), 0.01% Brij® 35 (polyoxyethylene (23) lauryl ether), and 0.1 mg/ml of BSA.
(§2) The enzyme and compounds were pre-incubated on a shaker to mix in wells. After an hour of mixing, fluorogenic substrate was added to each well. Reaction without enzyme was used as a blank control in the plate. The plate was then fed into a plate reader to measure fluorescence intensity at Excitation/Emission wavelengths of 340 nm/440 nm every 10 mins for at least 1 hour at 37° C. The IC50 of each compound in MMP-12 inhibition was determined by using a readout obtained at time point 30 minutes.

[2] = target: T2, recombinant human MMP-1 (Homo sapiens, UniProt P03956); experiment: MMP selectivity assay, MMP-1; conditions: Table 2 selectivity profile
T2 sequence (P03956 100-469): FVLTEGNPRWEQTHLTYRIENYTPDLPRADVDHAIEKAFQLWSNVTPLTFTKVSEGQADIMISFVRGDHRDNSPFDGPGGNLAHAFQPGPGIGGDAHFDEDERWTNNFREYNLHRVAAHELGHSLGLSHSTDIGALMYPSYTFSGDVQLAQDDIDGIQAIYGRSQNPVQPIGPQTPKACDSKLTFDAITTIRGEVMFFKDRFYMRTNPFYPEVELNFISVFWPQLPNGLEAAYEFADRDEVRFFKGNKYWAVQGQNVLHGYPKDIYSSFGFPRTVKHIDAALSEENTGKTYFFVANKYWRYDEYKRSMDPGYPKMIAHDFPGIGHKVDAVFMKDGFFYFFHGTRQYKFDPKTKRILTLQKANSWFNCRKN
Procedure: as §1, §2
(§3) The MMP selectivity assay was performed by using other recombinant human MMPs, including MMP-1, MMP-2, MMP-3, MMP-7, MMP-8, MMP-9, MMP-10, MMP-13, and MMP-14. The IC50 of the compounds for the other recombinant human MMPs was determined as described above in Example 1, and are shown in Table 2.

[3] = target: T3, recombinant human MMP-2 (Homo sapiens, UniProt P08253); experiment: MMP selectivity assay, MMP-2; conditions: Table 2 selectivity profile
T3 sequence (P08253 110-660): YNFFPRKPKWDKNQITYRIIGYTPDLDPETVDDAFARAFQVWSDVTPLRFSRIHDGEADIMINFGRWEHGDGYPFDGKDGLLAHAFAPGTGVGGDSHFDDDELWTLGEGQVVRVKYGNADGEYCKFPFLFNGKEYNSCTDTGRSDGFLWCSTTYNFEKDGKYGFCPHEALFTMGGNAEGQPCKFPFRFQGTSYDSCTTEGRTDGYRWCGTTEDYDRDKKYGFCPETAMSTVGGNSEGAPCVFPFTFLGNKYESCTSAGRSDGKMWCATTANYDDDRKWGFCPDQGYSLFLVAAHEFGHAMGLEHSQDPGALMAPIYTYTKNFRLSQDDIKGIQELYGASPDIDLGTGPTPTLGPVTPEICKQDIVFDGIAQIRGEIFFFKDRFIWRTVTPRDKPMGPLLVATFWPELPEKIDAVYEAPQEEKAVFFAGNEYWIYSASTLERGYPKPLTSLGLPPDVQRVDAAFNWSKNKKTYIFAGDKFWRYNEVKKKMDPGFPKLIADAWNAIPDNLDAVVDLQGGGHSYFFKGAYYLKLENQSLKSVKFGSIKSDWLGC
Procedure: as §1, §2, §3

[4] = target: recombinant human MMP-3 (Homo sapiens, UniProt P08254); experiment: MMP selectivity assay, MMP-3; conditions: Table 2 selectivity profile
Chain of recombinant human MMP-3 (P08254 100-477): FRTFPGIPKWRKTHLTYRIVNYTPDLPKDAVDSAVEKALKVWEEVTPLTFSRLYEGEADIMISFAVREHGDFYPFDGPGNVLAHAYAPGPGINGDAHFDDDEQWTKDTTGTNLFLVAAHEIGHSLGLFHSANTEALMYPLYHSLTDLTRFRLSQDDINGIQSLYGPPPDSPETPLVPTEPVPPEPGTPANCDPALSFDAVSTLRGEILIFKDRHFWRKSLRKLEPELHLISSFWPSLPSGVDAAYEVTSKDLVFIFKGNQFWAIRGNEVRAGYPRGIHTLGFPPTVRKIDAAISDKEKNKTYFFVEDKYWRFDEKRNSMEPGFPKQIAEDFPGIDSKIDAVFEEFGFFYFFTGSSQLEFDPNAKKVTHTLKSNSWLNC
Procedure: as §1, §2, §3

[5] = target: T4, recombinant human MMP-7 (Homo sapiens, UniProt P09237); experiment: MMP selectivity assay, MMP-7; conditions: Table 2 selectivity profile
T4 sequence (P09237 95-267): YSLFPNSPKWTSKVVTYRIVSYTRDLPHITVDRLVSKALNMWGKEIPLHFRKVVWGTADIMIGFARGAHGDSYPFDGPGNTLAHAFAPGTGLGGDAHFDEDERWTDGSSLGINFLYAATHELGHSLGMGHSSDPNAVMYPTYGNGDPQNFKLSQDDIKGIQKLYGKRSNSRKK
Procedure: as §1, §2, §3

[6] = target: recombinant human MMP-8 (Homo sapiens, UniProt P22894); experiment: MMP selectivity assay, MMP-8; conditions: Table 2 selectivity profile
Chain of recombinant human MMP-8 (P22894 101-467): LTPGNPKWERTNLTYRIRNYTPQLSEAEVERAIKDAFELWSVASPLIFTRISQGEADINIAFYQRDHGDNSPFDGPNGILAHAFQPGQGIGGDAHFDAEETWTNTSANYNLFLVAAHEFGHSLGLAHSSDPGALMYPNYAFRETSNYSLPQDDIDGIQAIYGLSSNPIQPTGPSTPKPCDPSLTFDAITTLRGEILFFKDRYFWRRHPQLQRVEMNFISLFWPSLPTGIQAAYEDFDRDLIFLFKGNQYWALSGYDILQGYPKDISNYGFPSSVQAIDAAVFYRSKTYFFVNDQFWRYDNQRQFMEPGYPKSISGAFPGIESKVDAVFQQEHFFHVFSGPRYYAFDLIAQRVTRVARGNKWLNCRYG
Procedure: as §1, §2, §3

[7] = target: recombinant human MMP-9 (Homo sapiens, UniProt P14780); experiment: MMP selectivity assay, MMP-9; conditions: Table 2 selectivity profile
Chain of recombinant human MMP-9 (P14780 94-707): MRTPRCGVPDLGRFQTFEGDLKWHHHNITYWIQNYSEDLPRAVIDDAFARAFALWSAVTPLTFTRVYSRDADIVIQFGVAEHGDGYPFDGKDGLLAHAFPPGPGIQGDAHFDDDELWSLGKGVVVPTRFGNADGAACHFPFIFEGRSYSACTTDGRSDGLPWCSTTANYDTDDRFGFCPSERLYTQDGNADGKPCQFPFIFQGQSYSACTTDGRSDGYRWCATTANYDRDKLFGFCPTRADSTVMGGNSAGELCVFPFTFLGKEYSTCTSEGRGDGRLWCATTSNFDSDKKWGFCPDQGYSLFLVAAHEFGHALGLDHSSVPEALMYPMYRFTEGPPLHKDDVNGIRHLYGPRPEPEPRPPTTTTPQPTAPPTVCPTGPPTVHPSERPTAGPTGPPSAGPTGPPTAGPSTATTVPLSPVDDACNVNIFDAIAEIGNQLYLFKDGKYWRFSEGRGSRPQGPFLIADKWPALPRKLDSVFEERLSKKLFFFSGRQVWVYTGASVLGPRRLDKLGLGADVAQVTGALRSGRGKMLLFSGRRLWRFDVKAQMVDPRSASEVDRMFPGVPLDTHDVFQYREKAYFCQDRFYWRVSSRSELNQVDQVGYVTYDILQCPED
Procedure: as §1, §2, §3

[8] = target: recombinant human MMP-10 (Homo sapiens, UniProt P09238); experiment: MMP selectivity assay, MMP-10; conditions: Table 2 selectivity profile
Chain of recombinant human MMP-10 (P09238 99-476): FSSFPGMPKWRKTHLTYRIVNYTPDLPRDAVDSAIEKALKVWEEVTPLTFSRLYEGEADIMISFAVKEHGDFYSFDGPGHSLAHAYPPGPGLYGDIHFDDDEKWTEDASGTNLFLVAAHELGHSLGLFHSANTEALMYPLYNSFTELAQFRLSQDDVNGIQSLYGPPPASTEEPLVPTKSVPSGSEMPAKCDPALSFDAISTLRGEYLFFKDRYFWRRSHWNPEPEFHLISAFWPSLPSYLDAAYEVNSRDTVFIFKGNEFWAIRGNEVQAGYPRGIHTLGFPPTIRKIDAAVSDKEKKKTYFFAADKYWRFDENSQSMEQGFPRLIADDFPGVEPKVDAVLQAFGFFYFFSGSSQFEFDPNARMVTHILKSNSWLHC
Procedure: as §1, §2, §3

[9] = target: recombinant human MMP-13 (Homo sapiens, UniProt P45452); experiment: MMP selectivity assay, MMP-13; conditions: Table 2 selectivity profile
Procedure: as §1, §2, §3

[10] = target: recombinant human MMP-14 (Homo sapiens, UniProt P50281); experiment: MMP selectivity assay, MMP-14; conditions: Table 2 selectivity profile
Procedure: as §1, §2, §3

IC50 [1]: 10 to 100 nM
SMILES: O=C1NC(=O)C(c2ccncc2Sc2ccc(OCc3ccnc(CO)c3)cc2)N1 (stereo not drawn) [PC-53]

IC50 [1]: 10 to 100 nM
SMILES: CC(C)[C@H](N)C(=O)OCc1cccc(COc2ccc(Sc3ccncc3C3NC(=O)NC3=O)cc2)c1 (stereo partly drawn) [PC-11]

IC50 [1]: 10 to 100 nM
SMILES: CC(C)Oc1cc(COc2ccc(Sc3ccncc3C3NC(=O)NC3=O)cc2)ccn1 (stereo not drawn) [PC-32]

IC50 [1]: > 1000 nM
SMILES: O=C1NC(=O)C(c2cnccc2Oc2ccc(OCc3cccc(C(=O)O)c3)cc2)N1 (stereo not drawn) [PC-23]

IC50 [1]: 10 to 100 nM
SMILES: O=C1NC(=O)C(c2cnccc2Oc2ccc(OCc3cccc(CO)c3)cc2)N1 (stereo not drawn) [PC-25]

SMILES: CCCOc1cccc(COc2ccc(Sc3ccsc3C3NC(=O)NC3=O)cc2)c1 (stereo not drawn) [TC1]
IC50 [1]: 100 to 1000 nM

IC50 [2]: > 10 µM
IC50 [3]: 1 to 10 µM
IC50 [4]: 100 to 1000 nM
IC50 [5]: > 10 µM
IC50 [6]: 1 to 10 µM
IC50 [7]: 1 to 10 µM
IC50 [8]: 1 to 10 µM
IC50 [9]: > 10 µM
IC50 [10]: > 10 µM
SMILES: O=C1NC(=O)C(c2ccncc2Sc2ccc(OCc3ccccc3CO)cc2)N1 (stereo not drawn) [PC-12]

IC50 [1]: 10 to 100 nM
SMILES: Cc1cccc(COc2ccc(Sc3ncn(C)c3C3NC(=O)NC3=O)cc2)c1 (stereo not drawn) [OC-6]

IC50 [1]: 100 to 1000 nM
SMILES: O=C1NC(=O)C(c2cnccc2Sc2ccc(OCc3cncc(CO)c3)cc2)N1 (stereo not drawn) [PC-39]

IC50 [1]: 10 to 100 nM
SMILES: Cc1cc(CNc2ccc(Sc3ccncc3C3NC(=O)NC3=O)cc2)ccn1 (stereo not drawn) [PC-56]

IC50 [2]: > 10 µM
IC50 [3]: 1 to 10 µM
IC50 [4]: 1000 to 10000 nM
IC50 [5]: > 10 µM
IC50 [6]: 1 to 10 µM
IC50 [7]: 1 to 10 µM
IC50 [8]: > 10 µM
IC50 [9]: 1 to 10 µM
IC50 [10]: > 10 µM
SMILES: O=C1NC(=O)C(c2cnccc2Sc2ccc(OCc3cccc(O)c3)cc2)N1 (stereo not drawn) [PC-10]

IC50 [1]: 10 to 100 nM
SMILES: Cc1cc(OCc2ccc(Sc3ccncc3C3NC(=O)NC3=O)cc2)ccn1 (stereo not drawn) [PC-44]

IC50 [2]: > 10 µM
IC50 [3]: 1 to 10 µM
IC50 [4]: 1000 to 10000 nM
IC50 [5]: > 10 µM
IC50 [6]: > 10 µM
IC50 [7]: > 10 µM
IC50 [8]: > 10 µM
IC50 [9]: 1 to 10 µM
IC50 [10]: > 10 µM
SMILES: O=C1NC(=O)C(c2cnccc2Sc2ccc(OCc3cccc(CO)c3)cc2)N1 (stereo not drawn) [PC-8]

IC50 [1]: > 1000 nM
SMILES: Cc1cccc(COc2ccc(S(=O)(=O)c3cc[n+](O)cc3C3NC(=O)NC3=O)cc2)c1 (stereo not drawn) [OC-4]

IC50 [1]: 10 to 100 nM
SMILES: Cc1cccc(COc2ccc(Sc3cccnc3C3NC(=O)NC3=O)cc2)c1 (stereo not drawn) [PC-3]

IC50 [1]: 100 to 1000 nM
SMILES: NC(=O)c1cc(COc2ccc(Sc3ccncc3C3NC(=O)NC3=O)cc2)ccn1 (stereo not drawn) [PC-59]

IC50 [1]: 10 to 100 nM
SMILES: Cc1cc(COc2ccc(Sc3ccncc3C3NC(=O)NC3=O)c(C)c2)ccn1 (stereo not drawn) [PC-42]

IC50 [1]: 10 to 100 nM
SMILES: CNC(=O)c1cccc(COc2ccc(Sc3ccncc3C3NC(=O)NC3=O)cc2)c1 (stereo not drawn) [PC-29]

IC50 [1]: 10 to 100 nM
SMILES: Cc1cc(COc2ccc(Sc3cc(C)ncc3C3NC(=O)NC3=O)cc2)ccn1 (stereo not drawn) [PC-45]

IC50 [1]: 10 to 100 nM
SMILES: O=C1NC(=O)C(c2cnccc2Sc2ccc(OCc3ccccc3CO)cc2)N1 (stereo not drawn) [PC-9]

IC50 [1]: 10 to 100 nM
SMILES: Cc1cccc(COc2ccc(Sc3ccccc3C3NC(=O)NC3=O)cc2)c1 (stereo not drawn) [OC-1]

IC50 [1]: 10 to 100 nM
SMILES: Cc1cc(COc2ccc(Sc3c(C4NC(=O)NC4=O)ncn3C)cc2)ccn1 (stereo not drawn) [OC-14]

IC50 [1]: 10 to 100 nM
SMILES: Cc1cccc(COc2ccc(Oc3ccncc3C3NC(=O)NC3=O)cc2)c1 (stereo not drawn) [PC-26]

IC50 [1]: 10 to 100 nM
SMILES: Cc1cc(COc2ccc(Sc3ccncc3C3NC(=O)NC3=O)cc2F)ccn1 (stereo not drawn) [PC-52]

IC50 [1]: 100 to 1000 nM
SMILES: CNC(=O)c1cncc(COc2ccc(Sc3ccncc3C3NC(=O)NC3=O)cc2)c1 (stereo not drawn) [PC-36]

IC50 [1]: 10 to 100 nM
SMILES: NC(=O)c1cc(COc2ccc(Sc3ccncc3C3NC(=O)NC3=O)cc2)ccn1 (stereo not drawn) [PC-60]

IC50 [1]: 10 to 100 nM
SMILES: NC(=O)c1cncc(COc2ccc(Sc3ccncc3C3NC(=O)NC3=O)cc2)c1 (stereo not drawn) [PC-34]
